According to the supplement of paper PMC10307832:

Assays:
Assay in all cases: relative viability (nuclei count vs DMSO), 5 days (fraction); higher = more cells survive
Gemcitabine + Linsitinib = compound: Nc1ccn([C@@H]2O[C@H](CO)[C@@H](O)C2(F)F)c(=O)n1 [Gemcitabine] + C[C@]1(O)C[C@@H](c2nc(-c3ccc4ccc(-c5ccccc5)nc4c3)c3c(N)nccn32)C1 [Linsitinib] (partner 1 µM)
In short: (§1)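 For relative viability, nuclei counts in treated wells were divided by those in vehicle wells. Lung cancer cell lines had been pin-tool dosed in 1536-well plates the day after seeding and cultured for 5 days, then fixed and stained in one step (final 0.05% Triton X-100, 1% formaldehyde, 1 ug/ml Hoechst) and imaged at 4×. Doses were one drug alone or a fixed anchor-drug dose plus five library-drug doses (not always all listed) in √10 steps, and values are duplicate-plate medians.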

Gemcitabine + Pemetrexed = compound: Nc1ccn([C@@H]2O[C@H](CO)[C@@H](O)C2(F)F)c(=O)n1 [Gemcitabine] + Nc1nc2[nH]cc(CCc3ccc(C(=O)N[C@@H](CCC(=O)O)C(=O)O)cc3)c2c(=O)[nH]1 [Pemetrexed] (partner 0.2 µM)
In short: as §1

Gemcitabine + Vorinostat = compound: Nc1ccn([C@@H]2O[C@H](CO)[C@@H](O)C2(F)F)c(=O)n1 [Gemcitabine] + O=C(CCCCCCC(=O)Nc1ccccc1)NO [Vorinostat] (partner 1 µM)
In short: as §1

Gemcitabine + Olaparib = compound: Nc1ccn([C@@H]2O[C@H](CO)[C@@H](O)C2(F)F)c(=O)n1 [Gemcitabine] + O=C(c1cc(Cc2n[nH]c(=O)c3ccccc23)ccc1F)N1CCN(C(=O)C2CC2)CC1 [Olaparib] (partner 8 µM)
In short: as §1

Cell Line | relative viability (Gemcitabine + Linsitinib; first compound 0.001 µM) | relative viability (Gemcitabine + Linsitinib; first compound 0.003162 µM) | relative viability (Gemcitabine + Linsitinib; first compound 0.01 µM) | relative viability (Gemcitabine + Linsitinib; first compound 0.03162 µM) | relative viability (Gemcitabine + Linsitinib; first compound 0.1 µM) | relative viability (Gemcitabine + Pemetrexed; first compound 0.001 µM) | relative viability (Gemcitabine + Pemetrexed; first compound 0.003162 µM) | relative viability (Gemcitabine + Pemetrexed; first compound 0.01 µM) | relative viability (Gemcitabine + Pemetrexed; first compound 0.03162 µM) | relative viability (Gemcitabine + Pemetrexed; first compound 0.1 µM) | relative viability (Gemcitabine + Vorinostat; first compound 0.001 µM) | relative viability (Gemcitabine + Vorinostat; first compound 0.003162 µM) | relative viability (Gemcitabine + Vorinostat; first compound 0.01 µM) | relative viability (Gemcitabine + Vorinostat; first compound 0.03162 µM) | relative viability (Gemcitabine + Vorinostat; first compound 0.1 µM) | relative viability (Gemcitabine + Olaparib; first compound 0.001 µM) | relative viability (Gemcitabine + Olaparib; first compound 0.003162 µM) | relative viability (Gemcitabine + Olaparib; first compound 0.01 µM) | relative viability (Gemcitabine + Olaparib; first compound 0.03162 µM) | relative viability (Gemcitabine + Olaparib; first compound 0.1 µM)
201T | 1.07 | 1.06 | 1.06 | 0.663 | 0.339 | 0.291 | 0.327 | 0.288 | 0.254 | 0.286 | 0.999 | 1.04 | 0.93 | 0.43 | 0.253 | 0.884 | 0.844 | 0.826 | 0.302 | 0.262
A-427 | 1.06 | 1.03 | 0.895 | 0.209 | 0.138 | 0.986 | 0.93 | 0.851 | 0.351 | 0.249 | 0.826 | 0.857 | 0.671 | 0.321 | 0.284 | 0.756 | 0.745 | 0.481 | 0.259 | 0.199
ABC-1 | 0.92 | 1.01 | 0.689 | 0.286 | 0.243 |  |  |  |  |  |  | 1.26 | 1.06 | 0.303 | 0.256 |  | 0.687 | 0.54 | 0.427 | 0.398
BEN | 1.07 | 0.653 | 0.255 | 0.11 | 0.0904 | 0.774 | 0.417 | 0.277 | 0.164 | 0.223 | 0.653 | 0.55 | 0.309 | 0.253 | 0.331 | 0.946 | 0.421 | 0.234 | 0.193 | 0.145
CAL-12T | 0.777 | 0.859 | 0.567 | 0.256 | 0.169 | 1.38 | 1.07 | 1.04 | 0.286 | 0.156 | 0.864 | 0.744 | 0.715 | 0.272 | 0.178 | 0.714 | 0.641 | 0.551 | 0.228 | 0.201
COR-L23 | 1.19 | 0.954 | 0.467 | 0.0831 | 0.0803 | 0.198 | 0.19 | 0.19 | 0.14 | 0.129 | 0.486 | 0.347 | 0.092 | 0.0851 | 0.1 | 0.35 | 0.31 | 0.141 | 0.0915 | 0.0858
Calu-6 | 0.948 | 0.618 | 0.234 | 0.129 | 0.0919 |  |  |  |  |  |  |  |  |  |  | 0.529 | 0.465 | 0.24 | 0.119 | 0.0919
ChaGo-K-1 |  |  |  |  |  | 0.247 | 0.23 | 0.23 | 0.209 | 0.183 | 0.772 | 0.68 | 0.301 | 0.201 | 0.177 | 0.471 | 0.452 | 0.22 | 0.182 | 0.146
EBC-1 | 0.777 | 0.369 | 0.142 | 0.0966 | 0.115 |  |  |  |  |  |  |  |  |  |  | 0.73 | 0.195 | 0.141 | 0.116 | 0.107
IA-LM | 0.768 | 0.461 | 0.324 | 0.149 | 0.0467 |  |  |  |  |  | 0.943 | 0.907 | 0.865 | 0.0796 | 0.0532 | 0.854 | 0.788 | 0.797 | 0.0888 | 0.0689
NCI-H727 | 0.325 | 0.277 | 0.236 | 0.219 | 0.213 |  |  |  |  |  | 1.29 | 0.716 | 0.456 | 0.513 | 0.428 | 0.816 | 0.592 | 0.35 | 0.464 | 0.426
NCI-H1299 | 0.987 | 1.01 | 0.981 | 1 | 0.972 |  |  |  |  |  |  |  |  |  |  | 0.984 | 1.03 | 0.962 | 1 | 0.937
NCI-H1563 | 1.5 | 1.12 | 1.08 | 0.734 | 0.531 | 0.748 | 0.852 | 0.833 | 0.407 | 0.414 |  |  |  |  |  |  |  |  |  | 
NCI-H1648 |  |  |  |  |  | 0.836 | 0.64 | 0.628 | 0.339 | 0.349 | 0.435 | 0.388 | 0.461 | 0.288 | 0.209 | 1.01 | 0.659 | 0.497 | 0.335 | 0.227
NCI-H1650 |  |  |  |  |  | 0.362 | 0.326 | 0.305 | 0.157 | 0.172 | 0.55 | 0.33 | 0.34 | 0.21 | 0.127 | 0.886 | 0.522 | 0.479 | 0.12 | 0.122
NCI-H1703 | 0.774 | 0.228 | 0.103 | 0.101 | 0.132 |  |  |  |  |  |  |  |  |  |  | 0.359 | 0.266 | 0.0911 | 0.119 | 0.105
NCI-H1792 | 0.561 | 0.363 | 0.131 | 0.109 | 0.0721 | 0.773 | 0.174 | 0.0569 | 0.0984 | 0.0556 |  |  |  |  |  | 0.578 | 0.0978 | 0.0544 | 0.112 | 0.0454
NCI-H2170 |  |  |  |  |  | 0.289 | 0.259 | 0.314 | 0.127 | 0.119 | 0.829 | 0.843 | 0.538 | 0.113 | 0.105 | 0.591 | 0.636 | 0.258 | 0.091 | 0.104
SW 900 |  |  |  |  |  | 0.476 | 0.401 | 0.171 | 0.124 | 0.109 | 0.476 | 0.374 | 0.236 | 0.129 | 0.146 | 0.837 | 0.543 | 0.165 | 0.168 | 0.134
